These results are taken from US20250235418A1, “Butyrate Analogues and Methods of Use for HIF Stabilization and Treatment of Bowel Disease” (THE REGENTS OF THE UNIVERSITY OF COLORADO, A BODY CORPORATE, priority 2022, published 2025).

One assay addresses T1, PHD2181-402 (Homo sapiens, UniProt Q9GZT9).
T1 construct: made in house
Briefly: WaterLOGSY 1D NMR binding to PHD2181-402. To be noted: for binding to PHD2181-402 by WaterLOGSY: 10 mM SCFA, 25 μM PHD2181-402. The text has this: Protons attached to C4 were selectively inverted and acted as source of magnetization transfer. […] (G) Protons attached to C2 were selectively inverted.
Measurements were repeated 3 times.
This method enables sensitive and robust detection of binding (dissociation constants as weak as μM to low mM) based on the magnetization transfer between water molecules, proteins, and ligands of interest in close proximity via dipolar proton-proton cross-relaxation (nuclear Overhauser effect, NOE). […] Binding and non-binding ligands can be distinguished in a WaterLOGSY spectrum via their opposite signs in relation to water for their corresponding peaks.
This technique allows for mapping of the ligand pharmacophore by monitoring the response of individual protons to an increase of ROEs contribution to the overall cross relaxation rate.

A further assay relates to HIF-1α in T84 cells. Briefly: HIF stabilization by butyrate in T84 cells (HIF-1α target mRNA, HIF-1α protein). It is filed as cell-based. To be noted: 4 h. Here is the method:
(C) Quantified densitometry of HIF-1α protein expression in T84 cells treated with 10 mM butyrate with or without 1 mM MCPA for 4 h

The test system of assay [1] is PHD (2-OG accumulation) in T84 IECs. The experiment in a line: 2-OG levels in T84 cells as biomarker of PHD inhibition. It is filed as cell-based. To be noted: 3 h.
Protocol: (B) 2-OG concentrations in T84 cells treated with 10 mM butyrate with or without 1 mM MCPA or 30 μM IOX2 for 3 h
The relationship between butyrate and HIF, were examined whether butyrate influences PHD activity by monitoring 2-OG levels. […] In this, we considered such 2-OG accumulation as a metabolic biomarker of PHD inhibition (FIG. 3A).
The test system of assay [2] is HIF-1α / PHDs in murine colon tissue. The experiment in a line: rectal gavage of butyrate or IOX2 in antibiotic SCFA-depleted mice. It is filed as in vivo. The note with it: 1 h, 100 mM butyrate, 1.5 mM IOX2.
Another assay has as its system c2bbe cells. Briefly: epithelial barrier formation by transepithelial electrical resistance (TEER). The class given is cell-based. The note with it: 5 mM. Here is the method: Barrier development in Caco-2 cells treated with Veh, BA or […] (5 mM); n=6. Data analyzed by Two-way ANOVA with Dunnett for post hoc correction and presented as mean±S.E.M, *p<0.05 **p<0.01, ***p<0.001, #BA, *MBA compared to veh in two independent experiments.
TEER of C2bbe cells exposed to 5 mM butyrate derivatives.
Therefore, we decided to study the effect of various butyrate derivatives in barrier function; in fact, sodium butyrate is an established pro-barrier factor. We studied epithelial barrier integrity through measurement of transepithelial electrical resistance (TEER), a typical assay for the quantitation of epithelial barrier strength. IEC c2bbe were exposed to butyrate derivatives (all at 5 mM) and TEERS were measured daily.

The next assay deals with HIF regulated targets. Briefly: intraperitoneal injection in C57BL/6 mice, HIF regulated targets (EPO, GLUT1). It is filed as in vivo. To be noted: IP, BA 73 mg/kg, MBA 80 mg/kg, 24h. Here is the method:
Erythropoietin (EPO) is regulated by HIF stabilization. (A) EPO protein in blood serum was assessed by mesoscale assay (n=6-8). qPCR mRNA expression of HIF target mGLUT1 in kidney (B) and colon tissue (C) (n=3-8). Data analyzed by One-way ANOVA with Tukey for post hoc correction and presented as mean±S.E.M of two independent experiments, *p<0.05, **p<0.01, ***p<0.001, ****p<0.0001 […]
At 24 h, mice were sacrificed followed by exsanguination, extraction of right kidney and distal colon for analysis of HIF stabilization and HIF target gene expression. SHBA induces HIF regulated targets in vivo. Erythropoietin (EPO) is regulated by HIF stabilization. (A) EPO protein in blood serum was assessed by mesoscale assay (n=6-8). (B) qPCR mRNA expression of HIF target mGLUT1 in colon tissue (n=3-4). Data are presented as mean±S.E.M of two independent experiments, *p<0.05, **p<0.01.
A typical physiologic response to hypoxia is the increase in red blood cell production. Naturally, HIF is in charge of this response by regulating cell-type specific gene expression that leads to increased levels of the hormone erythropoietin (EPO).[10] […] We lastly explored the in-vivo effects of MBA in mediating induction of genes tightly regulated by HIF. […] After 24h of treatment, they were sacrificed and quickly exsanguinated to measure EPO levels in serum. […] Furthermore, we studied the induction of GLUT1, another classic HIF target responsible for the transport of various monosaccharides. Kidney and colon tissue were analyzed by real-time PCR to compare BA and MBA head-to-head. […] These findings support the ability of MBA to stabilize HIF in-vivo leading to the induction of classic target genes and transcription of a tightly regulated protein EPO.

Each structure is given as a SMILES string.

T1 sequence (Q9GZT9 181-402): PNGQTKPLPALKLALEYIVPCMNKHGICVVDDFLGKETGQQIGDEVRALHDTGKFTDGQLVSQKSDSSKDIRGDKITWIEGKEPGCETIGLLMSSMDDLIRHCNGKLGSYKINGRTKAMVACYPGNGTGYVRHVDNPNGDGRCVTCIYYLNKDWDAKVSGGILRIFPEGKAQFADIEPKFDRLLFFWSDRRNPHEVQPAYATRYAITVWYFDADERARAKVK

For `CCCC(=O)O` [Butyrate, Butyric acid], the “binding to PHD2181-402 by WaterLOGSY” value at PHD2181-402 (listed as Butyric acid) is “indicating binding”. Moreover, the “binding to PHD2181-402 by WaterLOGSY” value at PHD2181-402 (listed as butyrate) is “indicative of binding”. The “binding to the 2-OG and PHD2181-402 complex by WaterLOGSY” value on PHD2181-402 (10 mM butyrate, 25 μM PHD2181-402, with 150 μM 2-OG) is on record as “could not bind”. Moreover, the “HIF stabilization in the presence of MCPA” value in the assay on HIF-1α in T84 cells (10 mM butyrate with 1 mM MCPA) is recorded as “still stabilized HIF”. Moreover, in the assay with HIF-1α in T84 cells (10 mM), the HIF-1α protein levels result is listed as “increased” and the “HIF-1α target genes BNIP3, BNIP3L, GLUT1 mRNA” value is given as “induction of HIF-1α target genes”. Moreover, the “2-OG levels in the presence of MCPA” value in assay [1] (10 mM butyrate with 1 mM MCPA) is “significantly increased”. In addition, the “2-OG levels compared to control” value in assay [1] (10 mM butyrate, 30 μM IOX2) is reported as “significantly increased”. Moreover, in assay [2], the “colon tissue 2-OG levels after antibiotics” value is on record as “rescued” and the “mRNA expression of HIF-1α targets Bnip3, Bnip3l, Glu1 after antibiotics” value is “rescued”. Also, the “barrier integrity over the course of the experiment” value in the assay with c2bbe cells is “lose the integrity of their barrier”. Moreover, in the assay on HIF regulated targets, the “GLUT1 mRNA in colon tissue” value was “significantly increased in colon tissue” and the “GLUT1 mRNA in kidney” value was “induction of GLUT1 in kidney”.
